Reference: patent US7642274B2, “Inhibitor of pain threshold decrease” (Santen Pharmaceutical Co., Ltd., priority 2003, dated 2010)
Where a name gives a salt, the structure may show the parent alone.

Tests used:
[1] = system: repetitive cold stress rat models; experiment: Test for inhibition of pain threshold decrease by repetitive cold stress (continuous administration), Randall-Selitto method; assay type: in vivo; conditions: for inhibition in vivo at 3 mg/kg: Rattus norvegicus, 192 h, day 8 after applying the repetitive cold stress, orally 3 mg/kg once a day, with stress, average of 5 or 6 cases, read-out: Rate of inhibition of pain threshold decrease (%); for inhibition in vivo at 3 mg/kg / Rate of inhibition of pain threshold decrease (%): po; for Rate of inhibition of pain threshold decrease (%): rat, in vivo
[2] = system: repetitive cold stress rat models; experiment: Test for inhibition of pain threshold decrease by repetitive cold stress (single administration), Randall-Selitto method; assay type: in vivo; conditions: 24 hours after single administration on day 8 of repetitive cold stress; orally 3 mg/kg; with stress; average of 6 cases

Row | Structure (SMILES) | inhibition in vivo at 3 mg/kg [1] [%] | Pain threshold (mmHg) [2] [mmHg] | Rate of inhibition of pain threshold decrease (%) [2] [%] | Rate of inhibition of pain threshold decrease (%) ([1]; 3 mg/kg) | also measured
1 | COc1ccc(OCCCN(CCO)C(C)C)c(C2Sc3cc(Cl)ccc3N2C(C)=O)c1.Cl (single isomer, unassigned; (+)) [Compound A, (+)-3-acetyl-6-chloro-2-[2-(3-(N-(2-hydroxyethyl)-N-isopropylamino)propoxy)-5-methoxyphenyl]benzothiazoline hydrochloride] | 52.1 | 21.7 | 0 | – | –
2 | CC(=O)OC(C(=O)O)C(OC(C)=O)C(=O)O.COCCN(CCCOc1ccc(OC)cc1C1Sc2cc(Cl)ccc2N1C(C)=O)C(C)C (single isomer, unassigned; (+)) [Compound B, (+)-3-acetyl-6-chloro-2-[2-(3-(N-(2-methoxyethyl)-N-isopropylamino)propoxy)-5-methoxyphenyl]benzothiazolinediacetyl tartrate] | – | 21.5 | −1.9 | 53.9 | –
3 | CC(=O)OC(C(=O)O)C(OC(C)=O)C(=O)O.CCOCCN(CCCOc1ccc(OC)cc1C1Sc2cc(Cl)ccc2N1C(C)=O)C(C)C (single isomer, unassigned; (+)) [Compound C, (+)-3-acetyl-6-chloro-2-[2-(3-(N-(2-ethoxyethyl)-N-isopropylamino)propoxy)-5-methoxyphenyl]benzothiazolinediacetyl tartrate] | – | 21.7 | 0 | 73.4 | –
4 | COc1ccc(OCCCCl)c(C2Sc3cc(Cl)ccc3N2C(C)=O)c1 (single isomer, unassigned; (+)) [Compound F, (+)-3-acetyl-6-chloro-2-[2-(3-chloropropoxy)-5-methoxyphenyl]benzothiazoline hydrochloride] | 43.1 | – | – | – | –
5 | COc1ccc(OCCCN(CCOC(C)=O)C(C)C)c(C2Sc3cc(Cl)ccc3N2C(C)=O)c1 (single isomer, unassigned; (+)) [Compound H, (+)-2-[2-(3-(N-(2-acetoxyethyl)-N-isopropylamino)propoxy)-5-methoxyphenyl]-3-acetyl-6-chlorobenzothiazoline hydrochloride] | 34.5 | – | – | – | –
6 | COCOCCN(CCCOc1ccc(OC)cc1C1Sc2cc(Cl)ccc2N1C(C)=O)C(C)C.Cl (single isomer, unassigned; (+)) [Compound I, (+)-3-acetyl-6-chloro-2-[2-(3-(N-isopropyl-(N-methoxymethyloxyethyl)amino)propoxy)-5-methoxyphenyl]benzothiazoline hydrochloride] | – | – | – | 43.1 | –
7 | COc1ccc(OC(C)CCN(CCO)C(C)C)c(C2Sc3cc(Cl)ccc3N2C(C)=O)c1 (stereo not drawn) [Compound G, 3-acetyl-6-chloro-2-[2-(3-(N-(2-hydroxyethyl)-N-isopropylamino)-1-methylpropoxy)-5-methoxyphenyl]benzothiazoline hydrochloride] | 32.8 | – | – | – | –
8 | CCOCCN(CCCOc1ccc(OC)cc1C1Sc2cc(Cl)ccc2N1C(C)=O)C(C)C.Cl (stereo not drawn) [Compound K, 3-acetyl-6-chloro-2-[2-(3-(N-(2-ethoxyethyl)-N-isopropylamino)propoxy)-5-methoxyphenyl]benzothiazolinediacetyl hydrochloride] | – | – | – | – | Rate of inhibition of pain threshold decrease (%) ([1]; 10 mg/kg): 62.7%
9 | O=C(O)Cc1ccccc1Nc1c(Cl)cccc1Cl [Compound L, Diclofenac, reference compound] | – | – | – | – | activity on inhibiting a decrease in pain threshold ([1]; result in words, continuous administration once a day, day 8 of repetitive cold stress): not observed at all
